From patent US6573275B1, “Bicyclic amines” (Syngenta Limited, priority 1995, dated 2003)

Each molecule was assayed on peach aphid (Myzus persicae) (assay: Insecticidal test against peach aphid, infested Chinese cabbage leaves sprayed). Details: peach aphid (Myzus persicae) on Chinese cabbage leaves, sprayed with 500 ppm composition unless otherwise stated, mortality assessed after 3 days.
Assay type: in vivo
Protocol: This Example illustrates the insecticidal properties of the compounds of Formula I. The activity of the compounds of Formula I was determined using a variety of pests. The pests were treated with a liquid composition containing 500 parts per million (ppm) by weight of the compound unless otherwise stated. The compositions were made by dissolving the compound in acetone and ethanol (50:50) mixture and diluting the solutions with water containing 0.05% by weight of a wetting agent sold under the trade name “SYNPERONIC” NP8 until the liquid composition contained the required concentration of the compound. “SYNPERONIC” is a Registered Trade Mark.
The test procedure adopted with regard to each pest was basically the same and comprised supporting a number of the pests on a medium which was usually a substrate, a host plant or a foodstuff on which the pests feed, and treating either or both the medium and the pests with the compositions. The mortality of the pests was then assessed at periods usually varying from two to five days after the treatment.
In this test Chinese cabbage leaves were infested with aphids, the infested leaves were sprayed with the test composition, and the mortality assessed after 3 days.

| Structure (SMILES) | Score (grading of mortality) |
| --- | --- |
| CN1C2CCC1CC(C#N)(c1cncc(Cl)n1)C2 (stereo not drawn) [Compound 43, exo3-(6-chloropyrazin-2-yl)-endo-3-cyano-8-methyl-8-azabicyclo[3.2.1]octane] | A (A indicates 80-100% mortality) |
| CS(=O)(=O)CS(=O)(=O)N1C2CCC1CC(C#N)(c1cccnc1)C2 (stereo not drawn) [Compound 44, exo-3-(pyrid-3-yl)-endo-3-cyano-8-(methylsulphonylmethylsulphonyl)-8-azabicyclo[3.2.1]octane] | A (A indicates 80-100% mortality) |
| CS(=O)(=O)N1C2CCC1CC(C#N)(c1cccnc1)C2 (centres unmarked) [Compound 45] | C (C indicates less than 40% mortality) |
| CN1C2CCC1CC(C#N)(c1ccc(Cl)nc1)C2 (stereo not drawn) [Compound 46, exo-3-(6-chloropyrid-3-yl)-endo-3-cyano-8-methyl-8-azabicyclo[3.2.1]octane] | A (A indicates 80-100% mortality) |
| COCN1C2CCC1CC(C#N)(c1cccnc1)C2 (centres unmarked) [Compound 47] | A (A indicates 80-100% mortality) |
| CCOCN1C2CCC1CC(C#N)(c1cccnc1)C2 (centres unmarked) [Compound 48] | A (A indicates 80-100% mortality) |
| N#CCN1C2CCC1CC(C#N)(c1cccnc1)C2 (centres unmarked) [Compound 49] | A (A indicates 80-100% mortality) |
| CCOC(=O)CN1C2CCC1CC(C#N)(c1cccnc1)C2 (centres unmarked) [Compound 50] | A (A indicates 80-100% mortality) |
| COC(=O)CN1C2CCC1CC(C#N)(c1cccnc1)C2 (stereo not drawn) [Compound 51, exo-3-(pyrid-3-yl)-endo-3-cyano-8-(methoxycarbonylmethyl)-8-azabicyclo[3.2.1]octane] | A (A indicates 80-100% mortality) |
| CN1C2CCC1CC(C#N)(c1ccc([N+](=O)[O-])cc1F)C2 (centres unmarked) [Compound 52] | C (C indicates less than 40% mortality) |
| CN1C2CCC1CC(C#N)(c1cccc(F)c1)C2 (centres unmarked) [Compound 53] | A (A indicates 80-100% mortality) |
| N#CC1(c2cccnc2)CC2CCC(C1)N2CCO (centres unmarked) [Compound 54] | A (A indicates 80-100% mortality) |
| CN1C2CCC1CC(C#N)(c1cnc(Cl)c(Cl)c1)C2 (stereo not drawn) [Compound 55, exo-3-(5,6-dichloropyrid-3-yl)-endo-3-cyano-8-methyl-8-azabicyclo[3.2.1]octane] | A (A indicates 80-100% mortality) |
| C#CCN1C2CCC1CC(C#N)(c1cccnc1)C2 (centres unmarked) [Compound 56] | A (A indicates 80-100% mortality) |
| CN1C2CCC1CC(C#N)(c1cccnc1)C2 (centres unmarked) [Compound 57] | A (A indicates 80-100% mortality) |
| CC=CCN1C2CCC1CC(C#N)(c1cccnc1)C2 (centres unmarked) [Compound 58] | C (C indicates less than 40% mortality) |
| N#CC1(c2cc(F)cc(F)c2)CC2CCC(C1)N2c1ccc([N+](=O)[O-])cc1 (centres unmarked) [Compound 59] | A (A indicates 80-100% mortality) |
| CN1C2CCC1CC(C#N)(c1cncc(Cl)c1)C2 (stereo not drawn) [Compound 60, exo-3-(5-chloropyrid-3-yl)-endo-3-cyano-8-methyl-8-azabicyclo[3.2.1]octane] | A (A indicates 80-100% mortality) |
| N#CC1(c2cccnc2)CC2CCC(C1)N2c1ccccc1 (centres unmarked) [Compound 61] | A (A indicates 80-100% mortality) |
| CN1C2CCC1CC(C#N)(c1cnccn1)C2 (stereo not drawn) [Compound 62, exo-3-(pyrazin-2-yl)-endo-3-cyano-8-methyl-8-azabicyclo[3.2.1]octane] | A (A indicates 80-100% mortality) |
| CN1C2CCC1CC(C#N)(c1cc(Cl)nc(Cl)n1)C2 (stereo not drawn) [Compound 63, exo-3-(2,6-dichloropyrimid-4-yl)-endo-3-cyano-8-methyl-8-azabicyclo[3.2.1]octane] | C (C indicates less than 40% mortality) |
| N#CC1(c2cncc(Cl)c2)CC2CCC(C1)N2CCF (centres unmarked) [Compound 64] | A (A indicates 80-100% mortality) |
| CN1C2CCC1CC(C#N)(c1cc(Cl)nc(Cl)c1)C2 (stereo not drawn) [Compound 65, exo-3-(2,6-dichloropyrid-4-yl)-endo-3-cyano-8-methyl-8-azabicyclo[3.2.1]octane] | C (C indicates less than 40% mortality) |
| CN1[C@@H]2CC[C@H]1C[C@](C#N)(c1cc(Cl)nc(NN)c1)C2 [Compound 66, exo-3-(2-chloro-6-hydrazinopyrid-4-yl)-endo-3-cyano-8-methyl-8-azabicyclo[3.2.1]octane] | C (C indicates less than 40% mortality) |
| CN1C2CCC1CC(C#N)(c1ccncc1)C2 (stereo not drawn) [Compound 67, exo-3-(pyrid-4-yl)-endo-3-cyano-8-methyl-8-azabicyclo[3.2.1]octane] | A (A indicates 80-100% mortality) |

| Structure (SMILES) | Score (grading of mortality) |
| --- | --- |
| CN1C2CCC1CC(C#N)(c1cncc(Br)c1)C2 (stereo not drawn) [Compound 68, exo-3-(5-bromopyrid-3-yl)-endo-3-cyano-8-methyl-8-azabicyclo[3.2.1]octane] | A (A indicates 80-100% mortality) |
| C=COC(=O)N1[C@@H]2CC[C@H]1C[C@](C#N)(c1cncc(Cl)c1)C2 [Compound 69, exo-3-(5-chloropyrid-3-yl)-endo-3-cyano-8-(vinyloxycarbonyl)-8-azabicyclo[3.2.1]octane] | A (A indicates 80-100% mortality) |
| N#CC1(c2cncc(Cl)c2)CC2CCC(C1)N2 (stereo not drawn) [Compound 70, exo-3-(5-chloropyrid-3-yl)-endo-3-cyano-8-azabicyclo[3.2.1]octane] | A (A indicates 80-100% mortality) |
| CN1C2CCC1CC(C#N)(c1cccc(Cl)n1)C2 (centres unmarked) [Compound 71] | A (A indicates 80-100% mortality) |
| N#C[C@@]1(c2cncc(Cl)c2)C[C@H]2CC[C@@H](C1)N2CC(F)(F)F [Compound 72, exo-3-(5-chloropyrid-3-yl)-endo-3-cyano-8-(2,2,2-trifluoroethyl)-8-azabicyclo[3.2.1]octane] | A (A indicates 80-100% mortality) |
| N#CC1(c2cc(F)cc(F)c2)CC2CCC(C1)N2c1ccccn1 (centres unmarked) [Compound 73] | C (C indicates less than 40% mortality) |
| N#CC1(c2cncc(Cl)c2)CC2CCC(C1)N2c1ccccc1 (centres unmarked) [Compound 74] | A (A indicates 80-100% mortality) |
| C#CCN1C2CCC1CC(C#N)(c1cncc(Cl)c1)C2 (centres unmarked) [Compound 75] | A (A indicates 80-100% mortality) |
| C=CCN1C2CCC1CC(C#N)(c1cncc(Cl)c1)C2 (stereo not drawn) [Compound 76, exo-3-(5-chloropyrid-3-yl)-endo-3-cyano-8-allyl-8-azabicyclo[3.2.1]octane] | A (A indicates 80-100% mortality) |
| COc1cncc(C2(C#N)CC3CCC(C2)N3C)c1 (stereo not drawn) [Compound 77, exo-3-(5-methoxypyrid-3-yl)-endo-3-cyano-8-methyl-8-azabicyclo[3.2.1]octane] | A (A indicates 80-100% mortality) |
| CCN1C2CCC1CC(C#N)(c1cncc(Cl)c1)C2 (centres unmarked) [Compound 78] | A (A indicates 80-100% mortality) |
| CCCCN1C2CCC1CC(C#N)(c1cncc(Cl)c1)C2 (centres unmarked) [Compound 79] | A (A indicates 80-100% mortality) |
| COc1cncc(C2(C#N)CC3CCC(C2)N3C)c1 (centres unmarked) [Compound 80] | A (A indicates 80-100% mortality) |
| CCCCCCN1C2CCC1CC(C#N)(c1cncc(Cl)c1)C2 (stereo not drawn) [Compound 81, exo-3-(5-chloropyrid-3-yl)-endo-3-cyano-8-(n-hexyl)-8-azabicyclo[3.2.1]octane] | A (A indicates 80-100% mortality) |
| N#CC1(c2cncc(Cl)c2)CC2CCC(C1)N2C(=O)Oc1ccccc1 (centres unmarked) [Compound 82] | A (A indicates 80-100% mortality) |
| N#CC1(c2cncc(Cl)c2)CC2CCC(C1)N2C(=O)OCC(Cl)(Cl)Cl (centres unmarked) [Compound 83] | A (A indicates 80-100% mortality) |
| CCOC(=O)N1C2CCC1CC(C#N)(c1cncc(Cl)c1)C2 (centres unmarked) [Compound 84] | A (A indicates 80-100% mortality) |
| N#CC1(c2cncc(Cl)c2)CC2CCC(C1)N2C(=O)OCC1c2ccccc2-c2ccccc21 (centres unmarked) [Compound 85] | A (A indicates 80-100% mortality) |
| CCOC(=O)CN1C2CCC1CC(C#N)(c1cncc(Cl)c1)C2 (centres unmarked) [Compound 86] | A (A indicates 80-100% mortality) |
| CC(C)N1C2CCC1CC(C#N)(c1cncc(Cl)c1)C2 (stereo not drawn) [Compound 87, exo-3-(5-chloropyrid-3-yl)-endo-3-cyano-8-isopropyl-8-azabicyclo[3.2.1]octane] | A (A indicates 80-100% mortality) |
| N#CC1(c2cncc(Cl)c2)CC2CCC(C1)N2C=CC(=O)C(F)(F)F (stereo not drawn) [Compound 88, exo-3-(5-chloropyrid-3-yl)-endo-3-cyano-8-(3-oxo-4,4,4-trifluorobut-1-en-1-yl)-8-azabicyclo[3.2.1]octane] | A (A indicates 80-100% mortality) |
| CC(OC(=O)N1C2CCC1CC(C#N)(c1cncc(Cl)c1)C2)C(Cl)(Cl)Cl (centres unmarked) [Compound 89] | C (C indicates less than 40% mortality) |
| C=CCOC(=O)N1C2CCC1CC(C#N)(c1cncc(Cl)c1)C2 (centres unmarked) [Compound 90] | A (A indicates 80-100% mortality) |
| N#CC1(c2cncc(Cl)c2)CC2CCC(C1)N2C(=O)OCc1ccccc1 (centres unmarked) [Compound 91] | A (A indicates 80-100% mortality) |
| N#CC1(c2cncc(Cl)c2)CC2CCC(C1)N2C(=O)OCCCl (centres unmarked) [Compound 92] | A (A indicates 80-100% mortality) |
